# Measurements: article PMC8296573, “Synthesis and Biological Evaluation of Fingolimod Derivatives as Antibacterial Agents” (ACS Omega, 2021)
# Read-outs that look alike come from different tables or passages of the source.
# Experiments:
# S. aureus ATCC 25923 [1] = assay: Antibacterial activity, pre-exposure (planktonic cells and biofilm formation); type: cell-based, Staphylococcus aureus; conditions: for MIC / inhibition at 5 µM / inhibition at 10 µM / inhibition at 15 µM / inhibition at 25 µM: Staphylococcus aureus, ATCC25923; for inhibition at 5 µM / inhibition at 10 µM / inhibition at 15 µM / inhibition at 25 µM / Average inhibition %, biofilms viability / Average inhibition %, planktonic cells viability: pre-exposure, ± SD
# In short: (§1)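 Read-outs were turbidity and resazurin reduction for planktonic cells, and resazurin followed by crystal violet biomass (A595) for biofilms. Compounds were present from inoculation onward, with 18 h aerobic growth at 37 °C under shaking.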
# S. aureus ATCC 25923 [2] = assay: Antibacterial activity, post-exposure on preformed 18-h-old biofilms; type: cell-based, Staphylococcus aureus; conditions: ± SD; for inhibition at 25 µM / inhibition at 50 µM / inhibition at 100 µM / inhibition at 200 µM: Staphylococcus aureus; for inhibition at 25 µM: ATCC25923, 25 µM; for inhibition at 50 µM: ATCC25923, 50 µM; for inhibition at 100 µM: ATCC25923, 100 µM; for inhibition at 200 µM: ATCC25923, 200 µM
# In short: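 Biofilms grown 18 h without compound, medium then replaced and compound added for a further 24 h. Planktonic OD and resazurin (20 μM final) fluorescence (ex 560/em 590 nm) read; washed biofilms stained with 20 μM resazurin 30 min at 37 °C, then ethanol-fixed and crystal violet-stained, absorbance 595 nm.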
# A. baumannii NCTC 13423 = assay: Antibacterial activity, pre-exposure; type: cell-based, Acinetobacter baumannii; conditions: for Average inhibition %, biofilms viability / Average inhibition %, planktonic cells viability / inhibition at 10 µM / inhibition at 15 µM / inhibition at 25 µM / inhibition at 50 µM: A. baumannii NCTC 13423, pre-exposure, ± SD; for inhibition at 10 µM / inhibition at 15 µM / inhibition at 25 µM / inhibition at 50 µM: Acinetobacter baumannii, NCTC13423
# In short: as §1
# P. aeruginosa ATCC 9027 = assay: Antibacterial activity, pre-exposure; type: cell-based, Pseudomonas aeruginosa; conditions: for Average inhibition %, biofilms viability / Average inhibition %, planktonic cells viability / inhibition at 50 µM / inhibition at 100 µM / inhibition at 150 µM / inhibition at 200 µM: P. aeruginosa ATCC 9027, pre-exposure, ± SD; for inhibition at 50 µM / inhibition at 100 µM / inhibition at 150 µM / inhibition at 200 µM: Pseudomonas aeruginosa, ATCC9027
# In short: as §1
# [3] = 10 µM, read-out: Average inhibition %, biofilms biomass
# [4] = 10 µM, read-out: Average inhibition %, planktonic cells turbidity
# [5] = 15 µM, read-out: Average inhibition %, biofilms biomass
# [6] = 15 µM, read-out: Average inhibition %, planktonic cells turbidity
# [7] = 25 µM, read-out: Average inhibition %, biofilms biomass
# [8] = 25 µM, read-out: Average inhibition %, planktonic cells turbidity
# [9] = read-out: Average inhibition %, biofilms biomass
# [10] = read-out: Average inhibition %, planktonic cells turbidity
# [11] = 50 µM, read-out: Average inhibition %, biofilms biomass
# [12] = 50 µM, read-out: Average inhibition %, planktonic cells turbidity
structure (smiles),measurement,setting,value
"CCCCCCCCCCOc1ccc(CCC(N)(CO)CO)cc1 [Compound 49, 2-Amino-2-[4-(decyloxy)phenethyl]propane-1,3-diol]",MIC,"S. aureus ATCC 25923 [1]; lowest concentration with no visible growth (>90% inhibition of turbidity and viability of planktonic cells), 18 h, read-out: MIC S. aureus ATCC 25923",50 to 100 µM
same,inhibition at 5 µM,"S. aureus ATCC 25923 [1]; 5 µM, read-out: Average inhibition %, biofilms biomass",21.1 ± 15.7%
same,inhibition at 5 µM,"S. aureus ATCC 25923 [1]; 5 µM, read-out: Average inhibition %, planktonic cells turbidity",25 ± 31.1%
same,inhibition at 10 µM,S. aureus ATCC 25923 [1]; [3],24.7 ± 21.7%
same,inhibition at 10 µM,S. aureus ATCC 25923 [1]; [4],40.2 ± 21.5%
same,inhibition at 15 µM,S. aureus ATCC 25923 [1]; [5],42.1 ± 13.8%
same,inhibition at 15 µM,S. aureus ATCC 25923 [1]; [6],32.7 ± 33.7%
same,inhibition at 25 µM,S. aureus ATCC 25923 [1]; [7],65 ± 8%
same,inhibition at 25 µM,S. aureus ATCC 25923 [1]; [8],52 ± 35.7%
same,MIC,S. aureus ATCC 25923 [1]; read-out: MIC (S. aureus),50 to 100 µM
same,"Average inhibition %, biofilms viability",S. aureus ATCC 25923 [1]; 5 µM,21.8 ± 13.4%
same,"Average inhibition %, planktonic cells viability",S. aureus ATCC 25923 [1]; 5 µM,5.8 ± 6.5%
same,"Average inhibition %, biofilms viability",S. aureus ATCC 25923 [1]; 10 µM,19.2 ± 19.6%
same,"Average inhibition %, planktonic cells viability",S. aureus ATCC 25923 [1]; 10 µM,16 ± 20.8%
same,"Average inhibition %, biofilms viability",S. aureus ATCC 25923 [1]; 15 µM,34.9 ± 12.5%
same,"Average inhibition %, planktonic cells viability",S. aureus ATCC 25923 [1]; 15 µM,6.5 ± 7.4%
same,"Average inhibition %, biofilms viability",S. aureus ATCC 25923 [1]; 25 µM,46.4 ± 5.4%
same,"Average inhibition %, planktonic cells viability",S. aureus ATCC 25923 [1]; 25 µM,34.4 ± 41.1%
same,"Average inhibition %, biofilms viability",S. aureus ATCC 25923 [2]; 25 µM,23.1 ± 12%
same,"Average inhibition %, planktonic cells viability",S. aureus ATCC 25923 [2]; 25 µM,0 ± 0%
same,"Average inhibition %, biofilms viability",S. aureus ATCC 25923 [2]; 50 µM,31.6 ± 11.1%
same,"Average inhibition %, planktonic cells viability",S. aureus ATCC 25923 [2]; 50 µM,0 ± 0%
same,"Average inhibition %, biofilms viability",S. aureus ATCC 25923 [2]; 100 µM,30.4 ± 13.1%
same,"Average inhibition %, planktonic cells viability",S. aureus ATCC 25923 [2]; 100 µM,6 ± 10.4%
same,"Average inhibition %, biofilms viability",S. aureus ATCC 25923 [2]; 200 µM,18.9 ± 12.3%
same,"Average inhibition %, planktonic cells viability",S. aureus ATCC 25923 [2]; 200 µM,24.6 ± 9.6%
same,inhibition at 25 µM,S. aureus ATCC 25923 [2]; [9],46.2 ± 2.6%
same,inhibition at 25 µM,S. aureus ATCC 25923 [2]; [10],1 ± 1.8%
same,inhibition at 50 µM,S. aureus ATCC 25923 [2]; [9],41.6 ± 16.2%
same,inhibition at 50 µM,S. aureus ATCC 25923 [2]; [10],6.6 ± 6.1%
same,inhibition at 100 µM,S. aureus ATCC 25923 [2]; [9],47.3 ± 10.1%
same,inhibition at 100 µM,S. aureus ATCC 25923 [2]; [10],18.3 ± 26.2%
same,inhibition at 200 µM,S. aureus ATCC 25923 [2]; [9],41.4 ± 16.7%
same,inhibition at 200 µM,S. aureus ATCC 25923 [2]; [10],45 ± 23.1%
same,"Average inhibition %, biofilms viability",A. baumannii NCTC 13423; 10 µM,0 ± 0%
same,"Average inhibition %, planktonic cells viability",A. baumannii NCTC 13423; 10 µM,12 ± 4.3%
same,"Average inhibition %, biofilms viability",A. baumannii NCTC 13423; 15 µM,0 ± 0%
same,"Average inhibition %, planktonic cells viability",A. baumannii NCTC 13423; 15 µM,8.5 ± 10.6%
same,"Average inhibition %, biofilms viability",A. baumannii NCTC 13423; 25 µM,0 ± 0%
same,"Average inhibition %, planktonic cells viability",A. baumannii NCTC 13423; 25 µM,2.6 ± 4.5%
same,"Average inhibition %, biofilms viability",A. baumannii NCTC 13423; 50 µM,9 ± 8.3%
same,"Average inhibition %, planktonic cells viability",A. baumannii NCTC 13423; 50 µM,0 ± 0%
same,inhibition at 10 µM,A. baumannii NCTC 13423; [3],0%
same,inhibition at 10 µM,A. baumannii NCTC 13423; [4],0%
same,inhibition at 15 µM,A. baumannii NCTC 13423; [5],1.5 ± 2.4%
same,inhibition at 15 µM,A. baumannii NCTC 13423; [6],0%
same,inhibition at 25 µM,A. baumannii NCTC 13423; [7],1.1 ± 1.9%
same,inhibition at 25 µM,A. baumannii NCTC 13423; [8],0%
same,inhibition at 50 µM,A. baumannii NCTC 13423; [11],4.1 ± 7.2%
same,inhibition at 50 µM,A. baumannii NCTC 13423; [12],1.2 ± 2.1%
same,MIC A. baumannii NCTC 13423,"A. baumannii NCTC 13423; pre-exposure, Inactive = no activity up to 50 μM, > = some inhibition but no MIC reached",Inactive
same,"Average inhibition %, biofilms viability",P. aeruginosa ATCC 9027; 50 µM,1.1 ± 1%
same,"Average inhibition %, planktonic cells viability",P. aeruginosa ATCC 9027; 50 µM,11.2 ± 5%
same,"Average inhibition %, biofilms viability",P. aeruginosa ATCC 9027; 100 µM,1.4 ± 1.7%
same,"Average inhibition %, planktonic cells viability",P. aeruginosa ATCC 9027; 100 µM,11 ± 9.5%
same,"Average inhibition %, biofilms viability",P. aeruginosa ATCC 9027; 150 µM,1.8 ± 2.2%
same,"Average inhibition %, planktonic cells viability",P. aeruginosa ATCC 9027; 150 µM,10.3 ± 10.8%
same,"Average inhibition %, biofilms viability",P. aeruginosa ATCC 9027; 200 µM,4.2 ± 7.4%
same,"Average inhibition %, planktonic cells viability",P. aeruginosa ATCC 9027; 200 µM,8.8 ± 10.7%
same,inhibition at 50 µM,P. aeruginosa ATCC 9027; [11],5.1 ± 7.7%
same,inhibition at 50 µM,P. aeruginosa ATCC 9027; [12],11.2 ± 9.7%
same,inhibition at 100 µM,"P. aeruginosa ATCC 9027; 100 µM, read-out: Average inhibition %, biofilms biomass",2.5 ± 1.1%
same,inhibition at 100 µM,"P. aeruginosa ATCC 9027; 100 µM, read-out: Average inhibition %, planktonic cells turbidity",19.8 ± 7.4%
same,inhibition at 150 µM,"P. aeruginosa ATCC 9027; 150 µM, read-out: Average inhibition %, biofilms biomass",2.8 ± 4.2%
same,inhibition at 150 µM,"P. aeruginosa ATCC 9027; 150 µM, read-out: Average inhibition %, planktonic cells turbidity",11.4 ± 10.1%
same,inhibition at 200 µM,"P. aeruginosa ATCC 9027; 200 µM, read-out: Average inhibition %, biofilms biomass",2.2 ± 2.8%
same,inhibition at 200 µM,"P. aeruginosa ATCC 9027; 200 µM, read-out: Average inhibition %, planktonic cells turbidity",16.7 ± 3%
same,MIC P. aeruginosa ATCC 9027,"P. aeruginosa ATCC 9027; pre-exposure, Inactive = no activity up to 200 μM, > = some inhibition but no MIC reached",Inactive
